Laboratory results from ChEMBL document CHEMBL3046609, “Herbicidal properties of the thaxtomin group of phytotoxins” (2001).
Activity calls are given as the source filed them. The calls are words filed in the database; no cut-off is given here.

Experiments:
Abutilon theophrasti [1] = experiment: Herbicidal activity against Abutilon theophrasti (velvetleaf) assessed as visual injury at 1 ug/seedling applied to leaf after 1 week relative to control; type: functional
Echinochloa crus-galli [2] = experiment: Post-emergence herbicidal activity against Echinochloa crus-galli (barnyard grass) assessed as wilting at 0.5 to 4 kg/ha after 9 days; type: functional, organism-based
Helianthus annuus [3] = experiment: Herbicidal activity against Helianthus annuus (sunflower) assessed as visual injury at 100 ug/seedling applied to meristem after 1 week relative to control; type: functional
Helianthus annuus [4] = experiment: Pre-emergence growth inhibition of Helianthus annuus (sunflower) assessed as visual injury at 4 kg/ha after 16 days relative to control; type: functional; parameters: scale not given: the % may be the effect or the level left
Avena fatua [5] = experiment: Post-emergence growth inhibition of Avena fatua assessed as stunting at 0.5 to 4 kg/ha after 9 days; type: functional, organism-based
Echinochloa crus-galli [6] = experiment: Pre-emergence herbicidal activity against Echinochloa crus-galli (barnyard grass) after 16 days; type: functional
Ipomoea hederacea [7] = experiment: Post-emergence herbicidal activity against Ipomoea hederacea (ivy-leaved morning glory) assessed as stunting at 0.5 to 4 kg/ha after 9 days; type: functional, organism-based
Ipomoea hederacea [8] = experiment: Post-emergence herbicidal activity against Ipomoea hederacea (ivy-leaved morning glory) assessed as wilting at 0.5 to 4 kg/ha after 9 days; type: functional, organism-based
Lemna minor [9] = experiment: Herbicidal activity against Lemna minor (common duckweed) assessed as visual injury at 0.2 ppm after 9 days relative to control; type: functional
Helianthus annuus [10] = experiment: Herbicidal activity against Helianthus annuus (sunflower) assessed as visual injury at 10 ug/seedling applied to meristem after 1 week relative to control; type: functional
Helianthus annuus [11] = experiment: Pre-emergence growth inhibition of Helianthus annuus (sunflower) after 16 days; type: functional
Abutilon theophrasti [12] = experiment: Herbicidal activity against Abutilon theophrasti (velvetleaf) assessed as visual injury at 100 ug/seedling applied to leaf after 1 week relative to control; type: functional
Avena fatua [13] = experiment: Post-emergence growth inhibition of Avena fatua assessed as visual injury at 4 kg/ha after 9 days relative to control; type: functional; parameters: scale not given: the % may be the effect or the level left
Avena fatua [14] = experiment: Pre-emergence growth inhibition of Avena fatua assessed as visual injury at 0.5 kg/ha after 16 days relative to control; type: functional; parameters: scale not given: the % may be the effect or the level left
Echinochloa crus-galli [15] = experiment: Post-emergence herbicidal activity against Echinochloa crus-galli (barnyard grass) assessed as visual injury at 0.5 kg/ha after 9 days relative to control; type: functional
Ipomoea hederacea [16] = experiment: Pre-emergence herbicidal activity against Ipomoea hederacea (ivy-leaved morning glory) assessed as visual injury at 2 kg/ha after 16 days relative to control; type: functional
[17] = test system: Agrostis stolonifera var. palustris; experiment: Herbicidal activity against Agrostis stolonifera var. palustris after 9 days; type: functional
Echinochloa crus-galli [18] = experiment: Post-emergence herbicidal activity against Echinochloa crus-galli (barnyard grass) assessed as visual injury at 4 kg/ha after 9 days relative to control; type: functional
Arabidopsis thaliana = experiment: Growth inhibition of Arabidopsis thaliana var. Columbia after 9 days by agarose-based test; type: functional
Helianthus annuus [19] = experiment: Herbicidal activity against Helianthus annuus (sunflower) assessed as visual injury at 100 ug/seedling applied to cotyledon after 1 week relative to control; type: functional
Echinochloa crus-galli [20] = experiment: Pre-emergence herbicidal activity against Echinochloa crus-galli (barnyard grass) assessed as visual injury at 1 kg/ha after 16 days relative to control; type: functional
Ipomoea hederacea [21] = experiment: Pre-emergence herbicidal activity against Ipomoea hederacea (ivy-leaved morning glory) assessed as visual injury at 4 kg/ha after 16 days relative to control; type: functional
Avena fatua [22] = experiment: Post-emergence growth inhibition of Avena fatua assessed as meristematic at 0.5 to 4 kg/ha after 9 days; type: functional, organism-based
Ipomoea hederacea [23] = experiment: Post-emergence herbicidal activity against Ipomoea hederacea (ivy-leaved morning glory) assessed as visual injury at 4 kg/ha after 9 days relative to control; type: functional
Ipomoea hederacea [24] = experiment: Post-emergence herbicidal activity against Ipomoea hederacea (ivy-leaved morning glory) assessed as meristematic at 0.5 to 4 kg/ha after 9 days; type: functional, organism-based
Avena fatua [25] = experiment: Post-emergence growth inhibition of Avena fatua assessed as wilting at 0.5 to 4 kg/ha after 9 days; type: functional, organism-based
Lemna minor [26] = experiment: Herbicidal activity against Lemna minor (common duckweed) assessed as visual injury at 0.008 ppm after 9 days relative to control; type: functional
Helianthus annuus [27] = experiment: Herbicidal activity against Helianthus annuus (sunflower) assessed as visual injury at 1 ug/seedling applied to meristem after 1 week relative to control; type: functional
Avena fatua [28] = experiment: Post-emergence growth inhibition of Avena fatua assessed as visual injury at 1 kg/ha after 9 days relative to control; type: functional; parameters: scale not given: the % may be the effect or the level left
Ipomoea hederacea [29] = experiment: Herbicidal activity against Ipomoea hederacea (ivy-leaved morning glory) assessed as visual injury at 1 ug/seedling applied to meristem after 1 week relative to control; type: functional
[30] = test system: Agrostis stolonifera var. palustris; experiment: Herbicidal activity against Agrostis stolonifera var. palustris assessed as stunting after 9 days by agarose-based test; type: functional, organism-based
[31] = test system: Agrostis stolonifera var. palustris; experiment: Herbicidal activity against Agrostis stolonifera var. palustris assessed as visual injury at 25 ppm after 9 days relative to control; type: functional
Echinochloa crus-galli [32] = experiment: Pre-emergence herbicidal activity against Echinochloa crus-galli (barnyard grass) assessed as visual injury at 0.5 kg/ha after 16 days relative to control; type: functional
Ipomoea hederacea [33] = experiment: Pre-emergence herbicidal activity against Ipomoea hederacea (ivy-leaved morning glory) assessed as visual injury at 1 kg/ha after 16 days relative to control; type: functional
Helianthus annuus [34] = experiment: Post-emergence growth inhibition of Helianthus annuus (sunflower) assessed as visual injury at 4 kg/ha after 9 days relative to control; type: functional; parameters: scale not given: the % may be the effect or the level left
Avena fatua [35] = experiment: Pre-emergence growth inhibition of Avena fatua assessed as stunting at 0.5 to 4 kg/ha after 16 days; type: functional, organism-based
Helianthus annuus [36] = experiment: Pre-emergence growth inhibition of Helianthus annuus (sunflower) assessed as meristematic at 0.5 to 4 kg/ha after 16 days; type: functional, organism-based
[37] = test system: Agrostis stolonifera var. palustris; experiment: Herbicidal activity against Agrostis stolonifera var. palustris assessed as visual injury at 1 ppm after 9 days relative to control; type: functional
Ipomoea hederacea [38] = experiment: Herbicidal activity against Ipomoea hederacea (ivy-leaved morning glory) assessed as visual injury at 10 ug/seedling applied to cotyledon after 1 week relative to control; type: functional
Echinochloa crus-galli [39] = experiment: Post-emergence herbicidal activity against Echinochloa crus-galli (barnyard grass) assessed as visual injury at 2 kg/ha after 9 days relative to control; type: functional
[40] = test system: Agrostis stolonifera var. palustris; experiment: Herbicidal activity against Agrostis stolonifera var. palustris assessed as visual injury at 5 ppm after 9 days relative to control; type: functional
Ipomoea hederacea [41] = experiment: Post-emergence herbicidal activity against Ipomoea hederacea (ivy-leaved morning glory) after 9 days; type: functional
Ipomoea hederacea [42] = experiment: Herbicidal activity against Ipomoea hederacea (ivy-leaved morning glory) assessed as visual injury at 100 ug/seedling applied to cotyledon after 1 week relative to control; type: functional
Helianthus annuus [43] = experiment: Herbicidal activity against Helianthus annuus (sunflower) assessed as visual injury at 1 ug/seedling applied to cotyledon after 1 week relative to control; type: functional
Helianthus annuus [44] = experiment: Post-emergence growth inhibition of Helianthus annuus (sunflower) assessed as meristematic at 0.5 to 4 kg/ha after 9 days; type: functional, organism-based
Avena fatua [45] = experiment: Post-emergence growth inhibition of Avena fatua after 9 days; type: functional
Ipomoea hederacea [46] = experiment: Pre-emergence herbicidal activity against Ipomoea hederacea (ivy-leaved morning glory) assessed as meristematic at 0.5 to 4 kg/ha after 16 days; type: functional, organism-based
Avena fatua [47] = experiment: Pre-emergence growth inhibition of Avena fatua after 16 days; type: functional
Ipomoea hederacea [48] = experiment: Post-emergence herbicidal activity against Ipomoea hederacea (ivy-leaved morning glory) assessed as visual injury at 1 kg/ha after 9 days relative to control; type: functional

## CN1C(=O)[C@](O)(Cc2cccc(O)c2)N(C)C(=O)[C@@H]1Cc1c[nH]c2cccc([N+](=O)[O-])c12 [THAXTOMIN A]
Abutilon theophrasti [1]
  Activity: 0%
Echinochloa crus-galli [2]
  Activity: Active
Helianthus annuus [3]
  Activity: 90%
Helianthus annuus [4]
  Activity: 100%
Avena fatua [5]
  Activity: Active
Echinochloa crus-galli [6]
  GR50: <500 g/ha
Ipomoea hederacea [7]
  Activity: Active
Ipomoea hederacea [8]
  Activity: Active
Lemna minor [9]
  Activity: 95%
Helianthus annuus [10]
  Activity: 90%
Helianthus annuus [11]
  GR50: <500 g/ha
Abutilon theophrasti [12]
  Activity: 0%
Avena fatua [13]
  Activity: 80%
Avena fatua [14]
  Activity: 100%
Echinochloa crus-galli [15]
  Activity: 10%
Ipomoea hederacea [16]
  Activity: 100%
[17]
  GR50: 12 ppb
Echinochloa crus-galli [18]
  Activity: 85%
Arabidopsis thaliana
  I50: 10 ppb
Helianthus annuus [19]
  Activity: 0%
Echinochloa crus-galli [20]
  Activity: 98%
Ipomoea hederacea [21]
  Activity: 100%
Avena fatua [22]
  Activity: Active
Ipomoea hederacea [23]
  Activity: 85%
Ipomoea hederacea [24]
  Activity: Active
Avena fatua [25]
  Activity: Active
Lemna minor [26]
  Activity: 30%
Helianthus annuus [27]
  Activity: 50%
Avena fatua [28]
  Activity: 30%
Ipomoea hederacea [29]
  Activity: 75%
[30]
  Activity: Active
[31]
  Activity: 100%
Echinochloa crus-galli [32]
  Activity: 98%
Ipomoea hederacea [33]
  Activity: 100%
Helianthus annuus [34]
  Activity: 85%
Avena fatua [35]
  Activity: Active
Helianthus annuus [36]
  Activity: Active
[37]
  Activity: 100%
Ipomoea hederacea [38]
  Activity: 0%
Echinochloa crus-galli [39]
  Activity: 40%
[40]
  Activity: 100%
Ipomoea hederacea [41]
  GR50: <500 g/ha
Ipomoea hederacea [42]
  Activity: 0%
Helianthus annuus [43]
  Activity: 0%
Helianthus annuus [44]
  Activity: Active
Avena fatua [45]
  GR50: 2 kg/ha
Ipomoea hederacea [46]
  Activity: Active
Avena fatua [47]
  GR50: <500 g/ha
Ipomoea hederacea [48]
  Activity: 80%
